Measurements: patent US20140363838A1, “MICROPERFUSION IMAGING PLATFORM” (William Marsh Rice University, priority 2013, published 2014)
Converted amounts (≈) assume the structure as drawn.

Tests used:
MDA-MB-468 cells [1] = test: live/dead (calcein-AM/EthD-1) viability assay, microcarrier format on pBNC device; assay type: cell-based; settings: Homo sapiens, BNC assays, microcarriers, 24 hour doxorubicin exposure, composite of 3 assays, read-out: Computed IC50 of composite dose curve (percent viability from EthD-1 intensity)
Description: Microcarriers cultured with MDA-MB-468 cells were harvested after 5-6 days of static culture with regular media exchanges every 48 hours. Doxorubicin solutions were prepared in fresh, warm media in volumes of 1 mL and added to aliquots of about 200 μL microcarriers and statically incubated for 24 hours at 37° C. Each aliquot was transferred to a sterile 2 ml micro-centrifuge tube where the microcarriers were allowed to settle. After supernatant was removed, microcarriers were rinsed in warm PBS, and incubated in fresh media at 37° C. until assayed. Negative control microcarriers were prepared by replacing this media with 70% methanol and incubating at room temperature for 30 minutes, and then suspended in PBS.
For each assay performed in triplicate (on a prior card embodiment with outlets at the bottom of the card), 4 negative control microcarriers were placed in the 4 outer corners of a 3×4 array of micro-containers through careful manipulation with precision forceps. […]
Images were acquired using a monochrome DVC camera connected to an Olympus BX-2 microscope (Center Valley, Pa.) with a 4× objective at a single focal plane at the top of the microcarriers. […] Intensities for both FITC and TxRed channels were measured separately, using a custom written ImageJ macro that extracts the average of the maxima of a series of line profile scans down each microcarrier. […]

MDA-MB-468 cells [2] = test: live/dead (calcein-AM/EthD-1) viability assay, monolayer 96-well plate, fluorescence plate reader; assay type: cell-based; settings: Homo sapiens, 96-well plate assays, 24 hour doxorubicin exposure, composite of 3 assays, read-out: Computed IC50 of composite dose curve (percent viability from EthD-1 intensity)
Description: Negative and positive controls were included as columns in each plate for the 96-well plate assays. Four negative control microcarriers were included in each assay on the BNC platform and one positive control assay served as the positive control for determining percent viability. Dose curves were plotted using a 5-parameter curve fitting algorithm in MATLAB (MATHWORKS®).
An equivalent viability assay was performed using standard 96-well plates for comparative purposes. Cells were seeded on 3, 96-well plates (CORNING®) at a final seeding density of about 10,000 cells per well. Plates were incubated at 37° C., 5% CO2 for 72 hours before media was exchanged for doxorubicin-containing media and incubated for an additional 24 hours. Negative control columns on each plate were prepared by replacing media with 70% methanol and incubating for 30 minutes at 37° C. Before imaging, all media was removed and cells were washed with warm PBS and replaced with a calcein-AM/EthD-1 solution with the same concentration as in the pBNC assay. […] A single point scan was performed on each well at excitation/emission wavelengths (nm) of 485/530 for calcein-AM and 530/645 for EthD-1.

MDA-MB-468 cells [3] = test: nuclear analysis (fixed cells, DAPI staining) of microcarriers on pBNC platform
[4] = test system: cells on spheroid microcarrier; test: doxorubicin uptake, chip versus plate/static, by Z depth; assay type: cell-based
MDA-MB-468 cells [5] = test: equivalent nuclear assay (fixed cells, DAPI staining) in monolayer

IC50 (MDA-MB-468 cells [1]): 4 µg/mL (≈ 7.36 µM)
IC50 (MDA-MB-468 cells [2]): 10 µg/mL (≈ 18.4 µM)
SMILES: COc1cccc2c1C(=O)c1c(O)c3c(c(O)c1C2=O)C[C@@](O)(C(=O)CO)C[C@@H]3O[C@H]1C[C@H](N)[C@H](O)[C@H](C)O1 [doxorubicin]
cells remaining attached (identified nuclear counts) (MDA-MB-468 cells [3]; 100 μg/mL doxorubicin, 24 hour exposure, Cytodex I microcarriers): some cells remained attached
total cell population (DAPI-stained nuclei / live-dead cell counting) (MDA-MB-468 cells [3]; increasing doxorubicin concentrations, both counting methods): decrease in total cell population
average uncorrected nuclear compactness (MDA-MB-468 cells [3]; microcarrier format, increasing doxorubicin concentration): increase in the average uncorrected compactness
average nuclear area (MDA-MB-468 cells [3]; microcarrier platform, across 10.000-fold doxorubicin concentration range): increases for low concentrations of doxorubicin and decreases for higher concentrations
distribution of average DAPI intensity of nuclei (MDA-MB-468 cells [3]; microcarrier platform, high doxorubicin concentrations (10 μg/mL)): shift in the distribution of DAPI intensities towards lower intensities
doxorubicin penetration into spheroid microcarrier cell layers (z-slices) ([4]; 2 hours incubation, observed for both chip and plate platforms): only able to penetrate through a few outer layers of cells
doxorubicin uptake, chip compared with static ([4]; chip vs static, FIG. 14): highly comparable
cells remaining attached (identified nuclear counts) (MDA-MB-468 cells [5]; 100 μg/mL doxorubicin, 24 hour exposure, monolayer): no monolayer cells remained attached
average uncorrected nuclear compactness (MDA-MB-468 cells [5]; monolayer format, increasing doxorubicin concentration): increase in the average uncorrected compactness
average nuclear area (MDA-MB-468 cells [5]; monolayer platform, across 10.000-fold doxorubicin concentration range): increases for low concentrations of doxorubicin and decreases for higher concentrations
distribution of average DAPI intensity of nuclei (MDA-MB-468 cells [5]; monolayer platform, high doxorubicin concentrations (10 μg/mL)): shift in the distribution of DAPI intensities towards lower intensities
